pEC50, pKi: −log10 of the molar value. In brackets after ≈: the same amount, converted by molar mass.
Columns and labels:
[1] = Aqueous solubility of the compound at pH 7.4; assay type: physicochemical; details: aqueous medium
Cannabinoid receptor 1 [2] = biological target: T1, Cannabinoid receptor 1 (Homo sapiens, UniProt P21554); test: Agonist activity at human cannabinoid CB1 receptor expressed in CHO cells by luciferase reporter gene assay; assay type: functional, cell-based
[3] = Cmax in rat at 5 mg/kg, po; assay type: ADME, organism-based; parameters: dose 5 mg/kg, route oral; details: in vivo
[4] = Oral bioavailability in rat at 5 mg/kg; assay type: ADME, organism-based; details: in vivo
[5] = Apparent permeability from apical to basolateral side of human Caco2 cells; assay type: ADME, cell-based; details: Caco-2
[6] = AUC in rat plasma at 5 mg/kg, po; assay type: ADME, organism-based; parameters: dose 5 mg/kg, route oral
[7] = Volume of distribution at steady state in rat at 0.4 mg/kg, iv; assay type: ADME, organism-based; parameters: dose 0.4 mg/kg, route intravenous; details: in vivo, read-out: Vdss
[8] = Clearance in rat at 0.4 mg/kg, iv; assay type: ADME, organism-based; parameters: dose 0.4 mg/kg, route intravenous; details: in vivo
[9] = Half life in rat at 0.4 mg/kg, iv; assay type: ADME, organism-based; parameters: dose 0.4 mg/kg, route intravenous; details: in vivo
[10] = AUC in rat plasma at 0.4 mg/kg, iv; assay type: ADME, organism-based; parameters: dose 0.4 mg/kg, route intravenous
Cannabinoid receptor 2 = Cannabinoid receptor 2 (Homo sapiens, UniProt P34972); test: Displacement of [3H]CP55940 from human cannabinoid CB2 receptor expressed in insect Sf9 cells
[11] = Tmax in rat at 5 mg/kg, po; assay type: ADME, organism-based; parameters: dose 5 mg/kg, route oral; details: in vivo
[12] = Apparent permeability from basolateral to apical side of human Caco2 cells; assay type: ADME, cell-based; details: Caco-2
Cannabinoid receptor 1 [13] = biological target: T1, Cannabinoid receptor 1; test: Displacement of [3H]CP55940 from human cannabinoid CB1 receptor expressed in insect Sf9 cells
[14] = Genotoxicity in Salmonella Typhimurium at 10^-4 M by Ames test; assay type: toxicity; details: salmonella enterica subsp. enterica serovar typhimurium, 100 µM

T1 sequence (P21554 whole entry): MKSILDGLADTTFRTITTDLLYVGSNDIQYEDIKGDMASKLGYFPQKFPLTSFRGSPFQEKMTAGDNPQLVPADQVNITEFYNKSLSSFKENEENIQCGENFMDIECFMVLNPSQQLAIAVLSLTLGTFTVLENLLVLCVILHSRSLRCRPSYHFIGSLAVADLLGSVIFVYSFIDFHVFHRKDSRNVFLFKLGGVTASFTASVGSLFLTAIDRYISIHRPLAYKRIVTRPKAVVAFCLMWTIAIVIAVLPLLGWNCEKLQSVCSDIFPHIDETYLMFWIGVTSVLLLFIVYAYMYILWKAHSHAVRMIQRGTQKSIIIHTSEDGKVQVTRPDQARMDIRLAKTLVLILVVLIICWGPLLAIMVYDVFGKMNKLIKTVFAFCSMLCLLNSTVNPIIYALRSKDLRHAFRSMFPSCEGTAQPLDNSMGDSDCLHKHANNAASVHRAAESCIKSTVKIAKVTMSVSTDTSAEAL
Cannabinoid receptor 2, sequence (P34972 whole entry): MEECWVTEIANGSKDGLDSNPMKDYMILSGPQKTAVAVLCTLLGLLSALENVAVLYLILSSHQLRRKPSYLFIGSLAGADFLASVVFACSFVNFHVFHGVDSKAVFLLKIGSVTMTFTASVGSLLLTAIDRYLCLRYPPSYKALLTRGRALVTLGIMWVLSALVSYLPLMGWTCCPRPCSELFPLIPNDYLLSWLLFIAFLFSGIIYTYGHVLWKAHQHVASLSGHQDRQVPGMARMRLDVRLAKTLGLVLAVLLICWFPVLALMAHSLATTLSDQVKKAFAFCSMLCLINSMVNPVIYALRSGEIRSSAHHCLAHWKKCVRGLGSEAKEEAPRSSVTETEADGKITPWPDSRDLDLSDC

## CN(CC(=O)NCCO)Cc1nc(-c2cn(CC3CCOCC3)c3c(Cl)cccc23)no1
[1]
  solubility: 88 µg/mL (≈ 190 µM)

## Clc1cccc2c(-c3nsc(CN4CCCC4)n3)cn(CC3CCOCC3)c12
[1]
  solubility: < 1 µg/mL

## O=C(O)C1CCCN1Cc1nc(-c2cn(CC3CCOCC3)c3c(Cl)cccc23)ns1 (stereo not drawn)
[1]
  solubility: 108 µg/mL (≈ 234 µM)
Cannabinoid receptor 1 [2]
  pEC50: 6.80

## CN(C)S(=O)(=O)N(C)Cc1nc(-c2cn(CC3CCOCC3)c3c(Cl)cccc23)no1
[1]
  solubility: < 1 µg/mL
Cannabinoid receptor 1 [2]
  pEC50: 7.50

## CN(Cc1nc(-c2cn(CC3CCOCC3)c3c(Cl)cccc23)no1)[C@@H](CO)C(N)=O
[1]
  solubility: 95 µg/mL (≈ 212 µM)
Cannabinoid receptor 1 [2]
  pEC50: 6.60

## Clc1cccc2c(-c3noc(CN4CCCC4)n3)cn(CC3CCOCC3)c12
[1]
  solubility: < 1 µg/mL
Cannabinoid receptor 1 [2]
  pEC50: 7.00

## CC(=O)N[C@@H]1CCN(Cc2nc(-c3cn(CC4CCOCC4)c4c(Cl)cccc34)ns2)C1
[1]
  solubility: 16 µg/mL (≈ 33.8 µM)
Cannabinoid receptor 1 [2]
  pEC50: 6.10

## Clc1cccc2c(-c3nsc(CN4CCCC4)n3)cn(CC3CCCCC3)c12
[1]
  solubility: < 1 µg/mL
Cannabinoid receptor 1 [2]
  pEC50: 7.80

## COCCN(C)Cc1nc(-c2cn(CC3CCOCC3)c3c(Cl)cccc23)ns1
[1]
  solubility: < 1 µg/mL
Cannabinoid receptor 1 [2]
  pEC50: 7.10

## COCC(=O)NCc1nc(-c2cn(CC3CCOCC3)c3c(Cl)cccc23)no1
[1]
  solubility: 4 µg/mL (≈ 9.55 µM)

## NC(=O)CNC(=O)[C@@H]1CCCN1Cc1nc(-c2cn(CC3CCOCC3)c3c(Cl)cccc23)ns1
[1]
  solubility: 15 µg/mL (≈ 29 µM)
Cannabinoid receptor 1 [2]
  pEC50: 6.40

## OC[C@H]1CCCN1Cc1nc(-c2cn(CC3CCOCC3)c3c(Cl)cccc23)ns1
[1]
  solubility: < 1 µg/mL
Cannabinoid receptor 1 [2]
  pEC50: 7.80

## COCCN(C)Cc1nc(-c2cn(CC3CCS(=O)(=O)CC3)c3c(Cl)cccc23)ns1
[1]
  solubility: < 1 µg/mL
Cannabinoid receptor 1 [2]
  pEC50: 6.70

## CN(CC(N)=O)Cc1nc(-c2cn(CC3CCOCC3)c3c(Cl)cccc23)no1
[3]
  Cmax: 173 ng/mL
[4]
  bioavailability: 53%
[1]
  solubility: 21 µg/mL (≈ 50.3 µM)
[5]
  Papp A→B: 8.3 ×10⁻⁶ cm/s
[6]
  AUC: 1570 ng·h/mL
[7]
  Vd: 3 L/kg
[8]
  clearance: 28 mL/min/kg
[9]
  half-life: 1.4 h
[10]
  AUC: 244 ng·h/mL
Cannabinoid receptor 2
  pKi: 8.20
[11]
  Tmax: 1 h
[12]
  Papp B→A: 12.7 ×10⁻⁶ cm/s
Cannabinoid receptor 1 [13]
  pKi: 8.40
[14]
  Activity: Non-toxic

## CC(C)N(CCO)Cc1csc(-c2c(CC3CCOCC3)[nH]c3c(Cl)cccc23)n1
[4]
  bioavailability: 4%
[1]
  solubility: > 10 µg/mL
Cannabinoid receptor 1 [2]
  pEC50: ≥ 7.00

## COCCN(Cc1nc(-c2cn(CC3CCOCC3)c3c(Cl)cccc23)ns1)S(C)(=O)=O
[1]
  solubility: < 1 µg/mL

## CS(=O)(=O)N(CCO)Cc1nc(-c2cn(CC3CCOCC3)c3c(Cl)cccc23)ns1
[1]
  solubility: < 1 µg/mL

## CCNC(=O)NCc1nc(-c2cn(CC3CCOCC3)c3c(Cl)cccc23)no1
[1]
  solubility: < 1 µg/mL
Cannabinoid receptor 1 [2]
  pEC50: 5.70

## O=C(NCCO)C1CCN(Cc2nc(-c3cn(CC4CCOCC4)c4c(Cl)cccc34)no2)CC1
[1]
  solubility: 115 µg/mL (≈ 229 µM)
Cannabinoid receptor 1 [2]
  pEC50: 6.90

## CN(CCO)Cc1nc(-c2cn(CC3CCOCC3)c3c(Cl)cccc23)ns1
[1]
  solubility: < 1 µg/mL
Cannabinoid receptor 1 [2]
  pEC50: 7.10
